This note sets out measurements from ChEMBL document CHEMBL3808373 (Bioorg Med Chem Lett, 2016).

The target of data set [1] is T1, Nav1.5 (peak sodium current, use-dependent block) (Homo sapiens, UniProt Q14524). The experiment in a line: Inhibition of 3 Hz stimulated human Nav1.5alpha expressed in HEK293 cells assessed as use dependent block of peak sodium current at 10 uM with 3 compound additions at 60 sec intervals at holding potential -100 mV incubated for 320 sec after third compound addition followed by second period of 3 Hz stimulation by PatchXpress method relative to control. The class given is cell-based. As to conditions: HEK293 cells expressing human Nav1.5alpha.
T1 sequence (Q14524 whole entry): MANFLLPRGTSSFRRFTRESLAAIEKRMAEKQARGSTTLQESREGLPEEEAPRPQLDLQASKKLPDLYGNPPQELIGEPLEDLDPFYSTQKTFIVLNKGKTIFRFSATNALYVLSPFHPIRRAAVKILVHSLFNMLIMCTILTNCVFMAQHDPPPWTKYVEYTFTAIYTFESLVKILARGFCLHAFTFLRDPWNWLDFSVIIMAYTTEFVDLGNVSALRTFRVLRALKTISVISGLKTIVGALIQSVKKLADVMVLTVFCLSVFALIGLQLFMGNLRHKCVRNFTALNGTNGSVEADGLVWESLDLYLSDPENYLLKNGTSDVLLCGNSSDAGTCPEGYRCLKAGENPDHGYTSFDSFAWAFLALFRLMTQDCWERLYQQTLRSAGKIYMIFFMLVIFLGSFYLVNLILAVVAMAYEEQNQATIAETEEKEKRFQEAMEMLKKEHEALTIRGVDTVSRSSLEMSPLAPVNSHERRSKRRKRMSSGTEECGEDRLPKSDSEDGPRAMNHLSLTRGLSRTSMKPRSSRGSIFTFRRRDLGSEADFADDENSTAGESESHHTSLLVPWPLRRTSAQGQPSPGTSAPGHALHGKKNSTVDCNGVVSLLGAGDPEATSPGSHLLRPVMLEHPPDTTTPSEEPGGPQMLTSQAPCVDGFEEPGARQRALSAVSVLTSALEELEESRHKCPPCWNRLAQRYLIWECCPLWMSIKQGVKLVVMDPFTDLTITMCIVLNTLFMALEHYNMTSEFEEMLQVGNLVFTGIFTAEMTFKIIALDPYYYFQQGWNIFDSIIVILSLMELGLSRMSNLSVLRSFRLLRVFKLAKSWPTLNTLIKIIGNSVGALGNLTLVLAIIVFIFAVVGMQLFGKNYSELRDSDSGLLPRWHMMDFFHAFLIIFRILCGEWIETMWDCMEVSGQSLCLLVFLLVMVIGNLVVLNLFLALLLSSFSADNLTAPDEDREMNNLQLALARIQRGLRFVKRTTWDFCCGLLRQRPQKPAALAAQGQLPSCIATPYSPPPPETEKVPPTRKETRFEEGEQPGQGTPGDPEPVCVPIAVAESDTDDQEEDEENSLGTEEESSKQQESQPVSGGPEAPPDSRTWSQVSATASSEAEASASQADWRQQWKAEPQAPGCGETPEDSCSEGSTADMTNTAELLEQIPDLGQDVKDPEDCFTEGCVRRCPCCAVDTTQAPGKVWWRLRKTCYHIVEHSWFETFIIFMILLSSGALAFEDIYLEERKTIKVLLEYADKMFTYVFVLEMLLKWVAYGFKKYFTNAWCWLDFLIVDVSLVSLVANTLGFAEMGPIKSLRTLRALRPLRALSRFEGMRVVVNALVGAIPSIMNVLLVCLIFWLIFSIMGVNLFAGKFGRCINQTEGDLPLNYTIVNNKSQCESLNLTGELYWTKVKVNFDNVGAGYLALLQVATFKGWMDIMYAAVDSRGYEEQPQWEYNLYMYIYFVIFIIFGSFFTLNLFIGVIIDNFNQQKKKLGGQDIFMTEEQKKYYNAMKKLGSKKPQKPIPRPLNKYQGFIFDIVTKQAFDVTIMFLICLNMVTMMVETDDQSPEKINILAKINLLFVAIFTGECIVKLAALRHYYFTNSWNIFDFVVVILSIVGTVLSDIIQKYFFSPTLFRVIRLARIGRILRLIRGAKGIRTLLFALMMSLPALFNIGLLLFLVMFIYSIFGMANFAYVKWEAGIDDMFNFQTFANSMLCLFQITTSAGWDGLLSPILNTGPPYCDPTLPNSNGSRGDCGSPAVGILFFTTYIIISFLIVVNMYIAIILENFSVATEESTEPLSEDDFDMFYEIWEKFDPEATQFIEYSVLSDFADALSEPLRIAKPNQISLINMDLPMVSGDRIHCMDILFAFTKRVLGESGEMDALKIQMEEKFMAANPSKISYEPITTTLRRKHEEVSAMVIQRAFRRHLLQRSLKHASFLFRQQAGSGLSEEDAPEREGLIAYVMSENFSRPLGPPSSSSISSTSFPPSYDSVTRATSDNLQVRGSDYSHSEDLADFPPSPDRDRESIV

The target in data set [2] is T2, Sodium channel protein type 5 subunit alpha (Homo sapiens, UniProt Q14524). Put plainly: Inhibition of 0.1 Hz stimulated human Nav1.5alpha expressed in HEK293 cells assessed as inhibition of late sodium current with 3 compound additions for 7 to 8 mins at holding potential -120 mV in presence of late sodium current activator tefluthrin/ATX2 measured immediately after third compound addition by PatchXpress method. The class given is cell-based.
T2 sequence (Q14524 whole entry): as above

Data set [3] can be described thus: Half life in dog microsomes. The class given is ADME, Canis lupus familiaris, Microsome.
Data set [4] can be described thus: Half life in rat microsomes. Format: ADME, Microsome.
Data set [5] concerns the target T3, Sodium channel protein type 1 subunit alpha (Homo sapiens, UniProt P35498). Put plainly: Inhibition of 10 Hz stimulated Nav1.1 (unknown origin) assessed as inhibition of peak sodium current at 10 uM by automated patch clamp method relative to control.
Data set [6] can be described thus: Lipophilicity, log D of compound. The note with it: octanol/water. Format: physicochemical.
The nature of data set [7]: Half life in human microsomes. The class given is ADME, Microsome.
The target in data set [8] is T2, Sodium channel protein type 5 subunit alpha. The note with it: HEK293, human, read-out: INH.
Description: Inhibition of 0.1 Hz stimulated human Nav1.5alpha expressed in HEK293 cells assessed as inhibition of late sodium current at 10 uM with 3 compound additions for 7 to 8 mins at holding potential -120 mV in presence of late sodium current activator tefluthrin/ATX2 measured immediately after third compound addition by PatchXpress method relative to control
Data set [9] has as its target T1, Nav1.5 (peak sodium current, use-dependent block). The experiment in a line: Inhibition of 3 Hz stimulated human Nav1.5alpha expressed in HEK293 cells assessed as use dependent block of peak sodium current at 1 uM with 3 compound additions at 60 sec intervals at holding potential -100 mV incubated for 320 sec after third compound addition followed by second period of 3 Hz stimulation by PatchXpress method relative to control. Format: cell-based. As to conditions: HEK293 cells expressing human Nav1.5alpha.

The target of data set [10] is T4, Sodium channel protein type 2 subunit alpha (Homo sapiens, UniProt Q99250). The experiment in a line: Inhibition of 10 Hz stimulated Nav1.2 (unknown origin) by manual patch clamp method.
Data set [11] is described as follows: Ratio of drug level in brain to plasma in dog. Format: ADME, cell-free, Canis lupus familiaris. As to conditions: read-out: BPR.
The target in data set [12] is T3, Sodium channel protein type 1 subunit alpha. Put plainly: Inhibition of 10 Hz stimulated Nav1.1 (unknown origin) by manual patch clamp method.
The target is the same in data set [13]. Put plainly: Inhibition of 1 Hz stimulated Nav1.1 (unknown origin) by manual patch clamp method.
A short description of data set [14]: Ratio of drug level in brain to plasma in rat. Format: ADME, cell-free. As to conditions: read-out: BPR.
The target of data set [15] is Voltage-gated inwardly rectifying potassium channel KCNH2 (Homo sapiens, UniProt Q12809). Put plainly: Inhibition of human ERG.
Data set [16] addresses T4, Sodium channel protein type 2 subunit alpha. Put plainly: Inhibition of 1 Hz stimulated Nav1.2 (unknown origin) by manual patch clamp method.
In data set [17] the target is T2, Sodium channel protein type 5 subunit alpha. The experiment in a line: Inhibition of 0.1 Hz stimulated human Nav1.5alpha expressed in HEK293 cells assessed as inhibition of late sodium current at 300 nM with 3 compound additions for 7 to 8 mins at holding potential -120 mV in presence of late sodium current activator tefluthrin/ATX2 measured immediately after third compound addition by PatchXpress method relative to control. Format: cell-based.

A value given as a limit tells only on which side of the number the result lay.

Take `O=c1n(Cc2noc(CO)n2)nc2ccc(-c3ccc(Oc4ccc(F)cc4)cc3)cn12`: in [1], the inhibition at 320 s, 10 µM stood at 21%. Also, the IC50 in [2] is 981 µM. Besides, the results for the half-life in [3], in data set [4] and in [7] were 3.02 h, 0.533 h and 1.35 h, respectively. Further, the inhibition in [5] was 56%. Also, in data set [6], the logD turned out to be 2.8. Also, the inhibition at 10 µM in [8] was at least 70%.
On to `Cc1cc(Cn2nc3ccc(-c4ccc(OC(F)(F)F)cc4)cn3c2=O)on1`, for which the IC50 in data set [2] was over 10 µM.
As to `O=c1n(Cc2nc(C3CC3)co2)nc2ccc(-c3ccc(OC(F)(F)F)cc3)cn12`, the IC50 in data set [2] came out at 3 µM. For the same compound, the half-life in data set [3] came out at 1.8 h; in [4], 0.65 h; in data set [7], 0.65 h. In addition, in data set [8], the inhibition at 10 µM is at least 70%.
On to `O=c1n(Cc2nnc(C3CC3)o2)nc2ccc(-c3ccc(Oc4ccc(F)cc4)cc3)cn12`, for which the inhibition at 320 s, 1 µM in [9] was determined as 69%. In [2], the 50% inhibitory concentration (IC50) came out at 740 µM. Besides, the half-life in [3] is 4.78 h; in data set [4] it was 6.58 h; in data set [7] it was 6.58 h. Also, the inhibition in [5] is 56%. In addition, the inhibition at 10 µM in [8] is at least 70%.
As for `FC(F)(F)Oc1ccc(-c2ccc3nnc(C(F)(F)F)n3c2)cc1`, the IC50 in data set [10] is 7.9 µM; in data set [12] it was 0.4 µM; in [13], over 10 µM; in [15], over 10 µM; in data set [16] it was 0.4 µM. Besides, the values for the Kp in data set [11] and in data set [14] were 3 and 5, respectively.
On to `Cc1nc(Cn2nc3ccc(-c4ccc(Oc5ccc(Cl)cc5)cc4)cn3c2=O)no1`, for which the inhibition at 320 s, 1 µM in [9] turned out to be 40%. Moreover, the half-life amounted to 5.9 h in data set [3], 6.5 h in data set [4] and 6.58 h in [7]. For the same compound, in data set [5], the inhibition stood at 79%. The inhibition at 0.3 µM in [17] stood at 60%. In addition, the inhibition at 10 µM in data set [8] is at least 70%.
`Cn1cnc(Cn2nc3ccc(-c4ccc(OC(F)(F)F)cc4)cn3c2=O)n1`: the IC50 in data set [2] is over 10 µM.
As to `Cc1nc(Cn2nc3ccc(-c4ccc(OC(F)(F)F)cc4)cn3c2=O)no1`, the inhibition at 320 s, 10 µM in data set [1] was determined as 10%. Also, the half-inhibitory concentration (IC50) in [2] was determined as 3.3 µM. Also, the values for the half-life in [4] and in data set [7] were 6.05 h and 6.58 h, respectively. Moreover, the inhibition in data set [5] turned out to be 27%. In addition, the inhibition at 10 µM in data set [8] was at least 70%.
For the compound `Cc1nc(Cn2nc3ccc(-c4ccc(Oc5ccc(F)cc5)cc4)cn3c2=O)no1`, the inhibition at 320 s, 1 µM in data set [9] was 46%. Also, the IC50 in [2] came out at 541 µM. Further, the half-life in data set [3] is 2.78 h; in [4], 2.42 h; in data set [7] it was 3.45 h. Further, in data set [5], the inhibition was determined as 65%. Also, the inhibition at 10 µM in [8] was at least 70%.
